# Ends that are not written are not given here.
# B1: rGNA33: recombinant GNA33 of strain 2996, soluble protein without signal and lipid modification sequences (protein)
# chain: MKKYLFRAALCGIAAAILAACQSKSIQTFPQPDTSVINGPDRPVGIPDPAGTTVGGGGAVYTVVPHLSLPHWAAQDFAKSLQSFRLGCANLKNRQGWQDVCAQAFQTPVHSVQAKQFFERYFTPWQVAGNGSLAGTVTGYYEPVLKGDDRRTAQARFPIYGIPDDFISVPLPAGLRSGKALVRIRQTGKNSGTIDNTGGTHTADLSQFPITARTTAIKGRFEGSRFLPYHTRNQINGGALDGKAPILGYAEDPVELFFMHIQGSGRLKTPSGKYIRIGYADKNEHPYVSIGRYMADKGYLKLGQTSMQGIKAYMQQNPQRLAEVLGQNPSYIFFRELTGSSNDGPVGALGTPLMGEYAGAVDRHYITLGAPLFVATAHPVTRKALNRLIMAQDTGSAIKGAVRVDYFWGYGDEAGELAGKQKTTGYVWQLLPNGMKPEYRP
# Experiments:
# anti-GNA33 mAb 25 = experiment: Peptide binding assay with cellulose-bound spot-synthesised peptides; parameters: species or system mouse; conditions: for Relative Binding (of anti-GNA33 mAb 25): alanine substitution of PorA loop 4 VR type P1.2-2 10-mer; for Dye Units (binding of anti-GNA33 mAb 25): mAb 25 6 μg/ml
# Protocol: Peptide spot synthesis was carried out on amino-PEG-cellulose membranes (ABIMED, Langerfeld, Germany) using a model ASP 222 automated spot synthesizer (ABIMED) and diisopropylcarbodiimide (DIC)/N-hydroxybenzotriazole (HOBt) activation (Frank and Overwin, Methods Mol. Biol. (1996) 66:149-169). In situ-prepared 0.2 M HOBt esters of fluorenylmethoxycarbonyl (Fmoc)-amino acid derivatives were used for the coupling reaction. […] After the final cycle, all the peptides were N-terminally acetylated with 2% acetic anhydride. At the end of the synthesis, the side-chain protecting groups were removed using a mixture of trifluoroacetic acid/triisobutylsilane/water/dichloromethane (50/3/2/45).
# Cellulose-bound peptides were soaked in ethanol to prevent hydrophobic interactions between the peptides. Non-specific binding was blocked by incubating cellulose sheets overnight at 4° C. with 10 ml of 2% casein in Tris buffered saline (TBS: 50 mM Tris-HCl, 137 mM NaCl, […], pH 7.0), containing 0.05% TWEEN® 20 (T-TBS). The sheets were incubated for 2 hr at 37° C. with the anti-GNA33 mAb 25 (6 μg/ml) or an anti-PorA 1.2 mAb diluted 1:100 in T-TBS blocking buffer. Alkaline phosphatase-conjugated goat anti-mouse IgG (BioRad) was then added at 1:3000 dilution in T-TBS blocking buffer for 1 hr at 37° C. Sheets were washed three times with T-TBS and detection of binding was achieved by incubating the sheets with bromo-4-chloro-3-indolyl-phosphate (BCIP) (Sigma, Steinheim, Germany) and […] in substrate buffer (100 mM Tris, pH 8.9, 100 mM NaCl, 2 mM MgCl2). Quantitative evaluation of the signal was obtained using a Umax Speedy II 2200 optical scanner.
# [1] = target: PorA of N. meningitidis strain M3735 (B:NT:P1.5,2) (Neisseria meningitidis serogroup B strain M3735); experiment: cell-based or functional assay
# [2] = target: PorA of N. meningitidis strain NMB (B:2b:P1.5,2) (Neisseria meningitidis serogroup B strain NMB); experiment: cell-based or functional assay
# [3] = target: PorA of N. meningitidis strain M986 (B:2a:P1.5,2) (Neisseria meningitidis serogroup B strain M986); experiment: cell-based or functional assay
# [4] = target: PorA of N. meningitidis strain M5545 (B:NT:P1.5,2) (Neisseria meningitidis serogroup B strain M5545); experiment: cell-based or functional assay
# [5] = target: PorA of N. meningitidis strain BZ232 (B:NT:P1.2) (Neisseria meningitidis serogroup B strain BZ232); experiment: cell-based or functional assay
# [6] = target: PorA of N. meningitidis strain 8047 (B:2b:P1.5,2) (Neisseria meningitidis serogroup B strain 8047); experiment: cell-based or functional assay
# [7] = target: PorA of N. meningitidis strain M5954 (C:2a:P1.2) (Neisseria meningitidis serogroup C strain M5954); experiment: cell-based or functional assay
# [8] = target: PorA of N. meningitidis strain M5682 (B:2a:P1.5,2) (Neisseria meningitidis serogroup B strain M5682); experiment: cell-based or functional assay
# [9] = target: PorA of N. meningitidis strain 2996 (B:2b:P1.5,2) (Neisseria meningitidis serogroup B strain 2996); experiment: cell-based or functional assay
# [10] = test system: encapsulated MenB strain 2996; conditions: mice immunized; measured against encapsulated MenB strain 2996; cited from earlier work
# [11] = test system: P1.2 epitope of PorA loop 4; experiment: Immunization of CD1 mice with rGNA33 in Freund's adjuvant; assay type: in vivo; conditions: recombinant protein simply mixed with Freund's adjuvant, without renaturation
# Protocol: In order to prepare antisera against GNA33, 20 μg of purified HT-GNA33 or untagged rGNA33 was used to immunize six-week old CD1 female mice (four to ten mice per group). The mice were obtained from Charles River (Italia S.P.A., Calco, Italy, or Hollister, Calif.). The recombinant protein was given i.p, together with complete Freund's adjuvant (CFA) for the first dose and incomplete Freund's adjuvant (IFA) for the second (day 21) and third (day 35) booster doses. Blood samples were taken on days 34 and 49.
# [12] = overlapping decapeptides from loop 4 of PorA P1.2 (strain 2996)
# [13] = overlapping decapeptides from GNA33
Molecule,Dye Units (binding of anti-GNA33 mAb 25) (anti-GNA33 mAb 25; [12]),Dye Units (binding of anti-GNA33 mAb 25) (anti-GNA33 mAb 25; [13]),other results
PAH FVA QTP Q (Ac-PAHFVAQTPQ),–,–,Relative Binding (of anti-GNA33 mAb 25) (anti-GNA33 mAb 25): 2
TPQSQPTVP,2 Dye Units,–,–
YTPAHFVQQT (Ac-YTPAHFVQQT),0 Dye Units,–,–
FVQQTPQSQP (Ac-FVQQTPQSQP),9 Dye Units,–,–
QDVSAQAFQT,–,0 Dye Units,–
PAH FVQ ATP Q (Ac-PAHFVQATPQ),–,–,Relative Binding (of anti-GNA33 mAb 25) (anti-GNA33 mAb 25): 0
QTPQSQPTLV (Ac-QTPQSQPTLV),2 Dye Units,–,–
HFVQQTPQSQ (Ac-HFVQQTPQSQ),15 Dye Units,–,–
PGH FVQ QTP Q (Ac-PGHFVQQTPQ),–,–,Relative Binding (of anti-GNA33 mAb 25) (anti-GNA33 mAb 25): 8
SAQAFQTPVH,–,29 Dye Units,–
QQTPQSQPTL (Ac-QQTPQSQPTL),0 Dye Units,–,–
QTPVHSFQAK,–,19 Dye Units,–
PAH AVQ QTP Q (Ac-PAHAVQQTPQ),–,–,Relative Binding (of anti-GNA33 mAb 25) (anti-GNA33 mAb 25): 1
AHFVQQTPQS (Ac-AHFVQQTPQS),14 Dye Units,–,–
PAH FVQ QTA Q (Ac-PAHFVQQTAQ),–,–,Relative Binding (of anti-GNA33 mAb 25) (anti-GNA33 mAb 25): 0
VSAQAFQTPV,–,27 Dye Units,–

Molecule,Dye Units (binding of anti-GNA33 mAb 25) (anti-GNA33 mAb 25; [12]),Dye Units (binding of anti-GNA33 mAb 25) (anti-GNA33 mAb 25; [13]),other results
FQTPVHSFQA,–,22 Dye Units,–
PAA FVQ QTP Q (Ac-PAAFVQQTPQ),–,–,Relative Binding (of anti-GNA33 mAb 25) (anti-GNA33 mAb 25): 8
"meningococcal Por A P1.2-specific subtyping mAb (MN16C13F4, subclass IgG2a) (antibody)",–,–,"BC50, human complement [1]: < 0.5 µg/mL; BC50, human complement [2]: < 0.5 µg/mL; BC50, human complement [3]: < 0.5 µg/mL; BC50, human complement [4]: < 0.5 µg/mL; BC50, human complement [5]: < 0.5 µg/mL; BC50, human complement [6]: < 0.5 µg/mL; BC50, human complement [7]: < 0.5 µg/mL; BC50, human complement [8]: < 0.5 µg/mL; BC50, human complement [9]: < 0.5 µg/mL"
TPVHSFQAKQ,–,2 Dye Units,–
PAH FVQ QAP Q (Ac-PAHFVQQAPQ),–,–,Relative Binding (of anti-GNA33 mAb 25) (anti-GNA33 mAb 25): 0
PAHFVQQTPQ (Ac-PAHFVQQTPQ),10 Dye Units,–,–
PAK FVQ QTP A (PAHFVQQTPA),–,–,Relative Binding (of anti-GNA33 mAb 25) (anti-GNA33 mAb 25): 2
AFQTPVHSFQ,–,24 Dye Units,–
QAFQTPVHSF,–,30 Dye Units,–
DVSAQAFQTP,–,23 Dye Units,–
TPAHFVQQTP,8 Dye Units,–,–
VQQTPQSQPT (Ac-VQQTPQSQPT),4 Dye Units,–,–
AQAFQTPVHS,–,30 Dye Units,–
PAH FAQ QTP Q (Ac-PAHFAQQTPQ),–,–,Relative Binding (of anti-GNA33 mAb 25) (anti-GNA33 mAb 25): 4
B1,–,–,serum bactericidal antibody titers [10]: high; antibody elicited by immunization [11]: elicited bactericidal antibody

# — US7534444B2, “Molecular mimetics of meningococcal B epitopes which elicit functionally active antibodies” (priority 2001, dated 2009)
